# Assays:
# [1] = biological target: Serine/threonine-protein kinase Chk1 (Homo sapiens) (UniProt O14757); assay: Inhibition of human CHK1 at 10 uM
# Rattus norvegicus [2] = species: Rattus norvegicus; assay: Inhibition of rat AMPK at 10 uM
# Mus musculus [3] = assay: Antiinflammatory activity in C57BL/6 mouse assessed as LPS-induced serum TNFalpha level at 100 mg/kg, po administered 30 mins prior to LPS challenge measured 60 mins post LPS challenge by ELISA relative to vehicle-treated control; assay type: functional
# [4] = Solubility of the compound at pH 7.4; assay type: physicochemical; conditions: buffer
# [5] = biological target: Inhibitor of nuclear factor kappa-B kinase subunit beta (Homo sapiens) (UniProt O14920); assay: Inhibition of human IKKbeta at 10 uM
# Serum [6] = assay: Drug level in C57BL/6 mouse serum at 30 mg/kg, po; assay type: ADME, organism-based; set-up: dose 30 mg/kg, route oral; conditions: in vivo, read-out: Drug uptake
# [7] = biological target: Receptor-type tyrosine-protein kinase FLT3 (Homo sapiens) (UniProt P36888); conditions: 10 uM
# Description: Inhibition of human FLT3 at 10 uM
# [8] = biological target: MAP kinase-activated protein kinase 2 (Mus musculus, UniProt P49138); assay: Inhibition of MAPKAP-K2 in mouse whole blood assessed as inhibition of LPS-induced TNFalpha production by ELISA
# Serum [9] = assay: Drug level in C57BL/6 mouse serum at 60 mg/kg, po; assay type: ADME, organism-based; set-up: dose 60 mg/kg, route oral; conditions: in vivo, read-out: Drug uptake
# [10] = biological target: T1, Mitogen-activated protein kinase 14 (Homo sapiens, UniProt Q16539); assay: Inhibition of human p38alpha at 10 uM
# Rattus norvegicus [11] = species: Rattus norvegicus; assay: Inhibition of rat CAMK2 at 10 uM
# [12] = Intrinsic clearance in human liver microsomes; assay type: ADME, Microsome; conditions: read-out: CLH
# [13] = biological target: Tyrosine-protein kinase Yes (Homo sapiens) (UniProt P07947); conditions: 10 uM
# Description: Inhibition of human YES at 10 uM
# [14] = Plasma protein binding in mouse; assay type: ADME, cell-free; conditions: read-out: PPB (converted)
# [15] = Oral bioavailability in mouse at 1 mg/kg; assay type: ADME, organism-based; conditions: in vivo
# [16] = Half life in mouse at 1 mg/kg, iv; assay type: ADME, organism-based; set-up: dose 1 mg/kg, route intravenous; conditions: in vivo
# [17] = Apparent permeability across apical to basolateral side in human Caco2 cells; assay type: ADME, cell-based; conditions: Caco-2
# Serum [18] = assay: Drug uptake in po dosed C57BL/6 mouse serum; assay type: ADME, organism-based; conditions: in vivo
# [19] = biological target: Mitogen-activated protein kinase 1 (Homo sapiens) (UniProt P28482); assay: Inhibition of human ERK2 at 10 uM
# [20] = biological target: Protein kinase C alpha type (Homo sapiens) (UniProt P17252); assay: Inhibition of human PKCalpha at 10 uM
# [21] = biological target: Dual specificity mitogen-activated protein kinase kinase 7 (Homo sapiens) (UniProt O14733); assay: Inhibition of human MKK7beta at 10 uM
# [22] = biological target: Dual specificity mitogen-activated protein kinase kinase 4 (Mus musculus) (UniProt P47809); assay: Inhibition of mouse MKK4 at 10 uM
# [23] = AUC (0 to 24 hrs) in mouse at 1 mg/kg, po; assay type: ADME, organism-based; set-up: time < 24 hr, dose 1 mg/kg, route oral; conditions: plasma
# [24] = Total clearance in mouse at 1 mg/kg, iv; assay type: ADME, organism-based; set-up: dose 1 mg/kg, route intravenous; conditions: in vivo
# [25] = biological target: Mitogen-activated protein kinase 13 (Homo sapiens) (UniProt O15264); assay: Inhibition of human p38delta at 10 uM
# [26] = biological target: Mitogen-activated protein kinase 8 (Homo sapiens) (UniProt P45983); assay: Inhibition of human JNK1alpha1 at 10 uM
# Serum [27] = assay: Drug level in C57BL/6 mouse serum at 10 mg/kg, po; assay type: ADME, organism-based; set-up: dose 10 mg/kg, route oral; conditions: in vivo, read-out: Drug uptake
# [28] = biological target: Cyclin-dependent kinase 1/cyclin B1 (Homo sapiens) (UniProt P06493+P14635); assay: Inhibition of human Cdk1/cyclin B at 10 uM; assay type: protein-complex assay
# [29] = biological target: Tyrosine-protein kinase Fes/Fps (Homo sapiens) (UniProt P07332); conditions: 10 uM
# Description: Inhibition of human FES at 10 uM
# [30] = biological target: Protein kinase C gamma type (Homo sapiens) (UniProt P05129); assay: Inhibition of human PKCgamma at 10 uM
# Serum [31] = assay: Drug level in C57BL/6 mouse serum at 100 mg/kg, po; assay type: ADME, organism-based; set-up: dose 100 mg/kg, route oral; conditions: in vivo, read-out: Drug uptake
# [32] = Intrinsic clearance in mouse liver microsomes; assay type: ADME, Microsome; conditions: read-out: CLH
# THP-1 = assay: Cytotoxicity against human THP1 cells assessed as cell viability by MTS assay; assay type: cell-based
# [33] = biological target: T2, Rho-associated protein kinase 2 (Homo sapiens, UniProt O75116); assay: Inhibition of human ROCK2 at 10 uM
# [34] = biological target: Dual specificity mitogen-activated protein kinase kinase 6 (Homo sapiens) (UniProt P52564); assay: Inhibition of human MKK6 at 10 uM
# [35] = biological target: Ribosomal protein S6 kinase alpha-3 (Homo sapiens) (UniProt P51812); assay: Inhibition of human RSK2 at 10 uM
# [36] = biological target: Dual specificity mitogen-activated protein kinase kinase 1 (Homo sapiens) (UniProt Q02750); assay: Inhibition of human MEK1 at 10 uM
# [37] = biological target: Mitogen-activated protein kinase 12 (Homo sapiens) (UniProt P53778); assay: Inhibition of human p38gamma at 10 uM
# [38] = biological target: MAP kinase-activated protein kinase 5 (Homo sapiens) (UniProt Q8IW41); assay: Inhibition of human PRAK at 10 uM
# Mus musculus [39] = assay: Antiinflammatory activity in po dosed C57BL/6 mouse assessed as decrease in LPS-induced serum TNFalpha level administered 30 mins prior to LPS challenge measured 60 mins post LPS challenge by ELISA; assay type: functional, organism-based
# Homo sapiens = species: Homo sapiens; assay: Inhibition of human PKA at 10 uM
# [40] = biological target: 3-phosphoinositide-dependent protein kinase 1 (Homo sapiens) (UniProt O15530); assay: Inhibition of human PDK1 at 10 uM
# [41] = biological target: Ribosomal protein S6 kinase beta-1 (Homo sapiens) (UniProt P23443); assay: Inhibition of human p70S6K at 10 uM
# [42] = biological target: RAC-alpha serine/threonine-protein kinase (Homo sapiens) (UniProt P31749); assay: Inhibition of human PKBalpha at 10 uM
# [43] = biological target: Mitogen-activated protein kinase 9 (Homo sapiens, UniProt P45984); assay: Inhibition of JNK2
# [44] = Inhibition of PHK
# [45] = biological target: MAP kinase-activated protein kinase 5 (Homo sapiens, UniProt Q8IW41); assay: Inhibition of PRAK
# [46] = biological target: T3, MAP kinase-activated protein kinase 2 (Homo sapiens, UniProt P49137); assay: Inhibition of MAPKAP-K2 using KKLNRTLSVA as substrate and [33P]-gamma-ATP after 30 mins by liquid scintillation counter
# [47] = biological target: Glycogen synthase kinase-3 beta (Homo sapiens, UniProt P49841); assay: Inhibition of GSK3beta
# [48] = biological target: T2, Rho-associated protein kinase 2; assay: Inhibition of ROK2
# [49] = biological target: Tyrosine-protein kinase Lck (Homo sapiens, UniProt P06239); assay: Inhibition of LCK
# [50] = biological target: Cyclin-dependent kinase 2 (Homo sapiens, UniProt P24941)
# Description: Inhibition of CDK2 after 60 mins using [33P]-gamma-ATP by liquid scintillation counter
# [51] = biological target: T1, Mitogen-activated protein kinase 14; assay: Inhibition of P38alpha
# [52] = biological target: T3, MAP kinase-activated protein kinase 2; assay: Competitive inhibition of MAPKAP-K2 using KKLNRTLSVA as substrate and [33P]-gamma-ATP by Lineweaver-Burke plot analysis
# T1 sequence (Q16539 whole entry): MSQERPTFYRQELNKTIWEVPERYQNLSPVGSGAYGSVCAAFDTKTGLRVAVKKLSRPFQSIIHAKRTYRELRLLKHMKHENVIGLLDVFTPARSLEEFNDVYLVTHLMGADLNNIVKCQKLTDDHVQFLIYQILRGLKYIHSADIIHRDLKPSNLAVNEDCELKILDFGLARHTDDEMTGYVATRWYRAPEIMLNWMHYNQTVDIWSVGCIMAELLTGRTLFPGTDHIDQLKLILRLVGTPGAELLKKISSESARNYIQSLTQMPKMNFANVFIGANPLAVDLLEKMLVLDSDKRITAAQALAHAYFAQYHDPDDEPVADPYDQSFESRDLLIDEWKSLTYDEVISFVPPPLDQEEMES
# T3 sequence (P49137 whole entry): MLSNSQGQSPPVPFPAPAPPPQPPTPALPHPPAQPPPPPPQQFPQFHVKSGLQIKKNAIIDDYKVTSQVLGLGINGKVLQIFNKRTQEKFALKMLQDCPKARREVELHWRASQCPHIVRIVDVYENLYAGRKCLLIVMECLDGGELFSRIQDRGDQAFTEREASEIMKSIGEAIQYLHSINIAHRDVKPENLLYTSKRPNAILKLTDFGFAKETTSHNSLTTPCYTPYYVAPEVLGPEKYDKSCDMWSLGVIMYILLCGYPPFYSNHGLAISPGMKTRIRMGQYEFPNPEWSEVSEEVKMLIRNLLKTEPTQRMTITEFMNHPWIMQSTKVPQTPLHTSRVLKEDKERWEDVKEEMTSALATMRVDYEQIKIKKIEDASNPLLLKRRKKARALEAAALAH
# Chain of Dual specificity mitogen-activated protein kinase kinase 6 (Homo sapiens) (P52564 whole entry): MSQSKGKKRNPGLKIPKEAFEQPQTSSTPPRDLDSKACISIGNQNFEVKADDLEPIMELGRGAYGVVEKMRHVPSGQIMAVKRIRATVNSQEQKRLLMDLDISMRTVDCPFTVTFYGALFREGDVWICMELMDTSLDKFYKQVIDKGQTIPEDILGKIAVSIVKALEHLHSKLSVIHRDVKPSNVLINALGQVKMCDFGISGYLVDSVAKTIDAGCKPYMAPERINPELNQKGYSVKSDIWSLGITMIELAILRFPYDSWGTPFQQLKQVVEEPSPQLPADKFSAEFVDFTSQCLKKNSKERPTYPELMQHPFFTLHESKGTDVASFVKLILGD
# Chain of Ribosomal protein S6 kinase alpha-3 (Homo sapiens) (P51812 whole entry): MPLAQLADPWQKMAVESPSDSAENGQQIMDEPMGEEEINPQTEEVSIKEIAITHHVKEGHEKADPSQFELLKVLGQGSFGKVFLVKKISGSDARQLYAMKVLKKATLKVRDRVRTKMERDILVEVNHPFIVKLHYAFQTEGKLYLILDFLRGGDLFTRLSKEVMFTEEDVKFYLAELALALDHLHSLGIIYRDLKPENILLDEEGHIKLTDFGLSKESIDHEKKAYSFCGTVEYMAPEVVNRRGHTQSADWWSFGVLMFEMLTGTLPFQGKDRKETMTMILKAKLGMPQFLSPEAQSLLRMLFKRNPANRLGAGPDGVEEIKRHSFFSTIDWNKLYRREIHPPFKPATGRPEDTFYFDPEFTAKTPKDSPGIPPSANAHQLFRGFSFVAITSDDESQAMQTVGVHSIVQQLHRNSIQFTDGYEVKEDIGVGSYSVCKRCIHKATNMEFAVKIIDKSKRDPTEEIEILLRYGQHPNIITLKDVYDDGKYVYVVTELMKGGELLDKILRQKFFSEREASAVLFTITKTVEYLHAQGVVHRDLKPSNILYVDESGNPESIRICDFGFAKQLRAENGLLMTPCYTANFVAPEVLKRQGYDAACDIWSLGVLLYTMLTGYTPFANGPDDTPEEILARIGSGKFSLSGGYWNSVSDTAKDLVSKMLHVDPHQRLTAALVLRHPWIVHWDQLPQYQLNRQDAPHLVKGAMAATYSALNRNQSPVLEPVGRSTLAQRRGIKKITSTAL
# Chain of Dual specificity mitogen-activated protein kinase kinase 4 (Mus musculus) (P47809 whole entry): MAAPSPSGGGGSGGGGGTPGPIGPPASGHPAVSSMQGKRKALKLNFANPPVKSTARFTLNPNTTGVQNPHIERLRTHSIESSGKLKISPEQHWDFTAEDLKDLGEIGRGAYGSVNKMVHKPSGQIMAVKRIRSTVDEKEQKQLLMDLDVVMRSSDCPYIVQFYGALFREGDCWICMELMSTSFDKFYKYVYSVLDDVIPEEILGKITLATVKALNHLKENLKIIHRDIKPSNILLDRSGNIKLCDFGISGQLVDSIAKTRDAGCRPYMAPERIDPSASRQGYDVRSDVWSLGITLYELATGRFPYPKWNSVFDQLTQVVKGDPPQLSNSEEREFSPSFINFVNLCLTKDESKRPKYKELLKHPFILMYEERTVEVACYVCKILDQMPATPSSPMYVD
# Chain of Dual specificity mitogen-activated protein kinase kinase 7 (Homo sapiens) (O14733 whole entry): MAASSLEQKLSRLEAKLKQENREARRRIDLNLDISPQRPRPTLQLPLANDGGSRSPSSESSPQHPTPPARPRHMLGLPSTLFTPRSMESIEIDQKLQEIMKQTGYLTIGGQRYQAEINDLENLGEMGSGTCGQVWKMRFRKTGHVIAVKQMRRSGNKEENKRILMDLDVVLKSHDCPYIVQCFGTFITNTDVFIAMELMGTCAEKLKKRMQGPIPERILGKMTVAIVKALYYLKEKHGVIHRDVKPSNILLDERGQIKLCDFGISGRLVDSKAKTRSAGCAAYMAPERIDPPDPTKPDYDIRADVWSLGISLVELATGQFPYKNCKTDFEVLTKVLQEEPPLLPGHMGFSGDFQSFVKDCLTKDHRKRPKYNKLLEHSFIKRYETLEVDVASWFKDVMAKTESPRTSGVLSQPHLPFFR
# Chain of Mitogen-activated protein kinase 9 (P45984 whole entry): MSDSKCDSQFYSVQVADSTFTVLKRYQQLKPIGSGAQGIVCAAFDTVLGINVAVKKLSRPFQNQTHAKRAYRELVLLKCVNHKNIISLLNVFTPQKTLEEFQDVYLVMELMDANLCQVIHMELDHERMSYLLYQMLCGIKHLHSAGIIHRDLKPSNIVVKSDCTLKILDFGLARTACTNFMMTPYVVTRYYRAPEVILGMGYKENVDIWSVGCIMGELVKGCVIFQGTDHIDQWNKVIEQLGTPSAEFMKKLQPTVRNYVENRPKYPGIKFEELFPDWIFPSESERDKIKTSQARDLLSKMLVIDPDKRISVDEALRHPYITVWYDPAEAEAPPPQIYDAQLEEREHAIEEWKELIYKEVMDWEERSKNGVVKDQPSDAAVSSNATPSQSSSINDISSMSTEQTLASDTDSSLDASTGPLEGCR
# Chain of Tyrosine-protein kinase Yes (Homo sapiens) (P07947 2-543 limits assumed): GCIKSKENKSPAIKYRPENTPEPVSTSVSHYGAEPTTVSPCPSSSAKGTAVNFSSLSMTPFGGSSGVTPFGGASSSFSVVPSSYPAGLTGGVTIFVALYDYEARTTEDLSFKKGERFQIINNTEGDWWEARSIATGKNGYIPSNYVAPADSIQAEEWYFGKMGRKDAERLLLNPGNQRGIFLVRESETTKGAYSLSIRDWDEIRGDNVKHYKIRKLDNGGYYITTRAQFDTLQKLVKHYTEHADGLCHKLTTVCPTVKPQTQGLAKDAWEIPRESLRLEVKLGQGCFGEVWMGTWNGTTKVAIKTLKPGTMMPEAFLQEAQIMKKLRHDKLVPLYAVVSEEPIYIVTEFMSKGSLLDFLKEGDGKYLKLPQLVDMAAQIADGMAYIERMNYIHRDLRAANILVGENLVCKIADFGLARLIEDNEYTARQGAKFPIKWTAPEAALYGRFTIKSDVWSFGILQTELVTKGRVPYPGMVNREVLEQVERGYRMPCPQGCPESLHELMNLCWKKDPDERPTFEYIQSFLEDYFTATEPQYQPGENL
# Chain of Mitogen-activated protein kinase 12 (Homo sapiens) (P53778 whole entry): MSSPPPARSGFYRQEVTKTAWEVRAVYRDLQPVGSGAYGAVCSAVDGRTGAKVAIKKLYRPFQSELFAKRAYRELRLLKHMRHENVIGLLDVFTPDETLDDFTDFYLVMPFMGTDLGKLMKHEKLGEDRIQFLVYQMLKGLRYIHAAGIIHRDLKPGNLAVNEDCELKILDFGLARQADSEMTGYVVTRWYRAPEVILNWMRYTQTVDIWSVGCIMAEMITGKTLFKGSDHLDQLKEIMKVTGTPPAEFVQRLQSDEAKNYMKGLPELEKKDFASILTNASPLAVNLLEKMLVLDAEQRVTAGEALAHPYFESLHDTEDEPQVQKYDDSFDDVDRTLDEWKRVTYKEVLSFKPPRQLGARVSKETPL
# Chain of Inhibitor of nuclear factor kappa-B kinase subunit beta (Homo sapiens) (O14920 whole entry): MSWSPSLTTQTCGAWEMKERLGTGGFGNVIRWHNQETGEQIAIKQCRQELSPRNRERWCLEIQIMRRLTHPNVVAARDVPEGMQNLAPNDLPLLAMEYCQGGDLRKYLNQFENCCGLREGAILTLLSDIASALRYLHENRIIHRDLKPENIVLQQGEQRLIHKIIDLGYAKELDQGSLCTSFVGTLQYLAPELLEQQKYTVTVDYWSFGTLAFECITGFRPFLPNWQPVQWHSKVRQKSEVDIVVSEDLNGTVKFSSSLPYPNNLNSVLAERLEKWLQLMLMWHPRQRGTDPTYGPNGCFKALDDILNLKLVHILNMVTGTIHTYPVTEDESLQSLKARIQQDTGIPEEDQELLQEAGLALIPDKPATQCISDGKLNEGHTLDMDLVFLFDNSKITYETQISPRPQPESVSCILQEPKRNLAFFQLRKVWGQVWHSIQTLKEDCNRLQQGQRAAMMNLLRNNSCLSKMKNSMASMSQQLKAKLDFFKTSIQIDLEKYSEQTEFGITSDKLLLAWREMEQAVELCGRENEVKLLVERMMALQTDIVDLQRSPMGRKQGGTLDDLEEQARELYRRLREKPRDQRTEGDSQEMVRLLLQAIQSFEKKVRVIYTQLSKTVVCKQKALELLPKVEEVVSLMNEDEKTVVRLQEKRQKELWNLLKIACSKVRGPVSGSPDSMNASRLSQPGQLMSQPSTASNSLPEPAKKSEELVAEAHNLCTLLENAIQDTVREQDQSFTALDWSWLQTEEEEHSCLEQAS
smiles,measurement,setting,value
CCOc1ccc(Nc2c(C)c(N[C@H]3CCCNC3)nc3ccnn23)cc1,inhibition,[1],30%
same,inhibition,Rattus norvegicus [2],35%
same,Activity,Mus musculus [3],14%
same,solubility,[4],70 µg/mL
same,inhibition,[5],7%
same,concentration,Serum [6],5 µM
same,inhibition,[7],> 75%
same,IC50,[8],5 µM
same,concentration,Serum [9],8 µM
same,inhibition,[10],4%
same,inhibition,Rattus norvegicus [11],41%
same,microsomal CLint,[12],< 10 µL/min/mg
same,inhibition,[13],> 75%
same,fraction unbound,[14],0.114
same,bioavailability,[15],66%
same,half-life,[16],2.2 h
same,Papp A→B,[17],28.3 ×10⁻⁶ cm/s
same,Drug uptake,Serum [18],Dose-dependent effect
same,inhibition,[19],7%
same,inhibition,[20],5%
same,inhibition,[21],26%
same,inhibition,[22],15%
same,AUC(0-t) at 24 h,[23],0.438 µM·h
same,clearance,[24],68.3 mL/min/kg
same,inhibition,[25],3%
same,inhibition,[26],0%
same,concentration,Serum [27],2 µM
same,inhibition,[28],12%
same,inhibition,[29],> 75%
same,inhibition,[30],-5%
same,concentration,Serum [31],10 µM
same,microsomal CLint,[32],11 µL/min/mg
same,IC50,THP-1,74 µM
same,inhibition,[33],23%
same,inhibition,[34],24%
same,inhibition,[35],9%
same,inhibition,[36],19%
same,inhibition,[37],-2%
same,inhibition,[38],62%
same,Activity,Mus musculus [39],Dose-dependent effect
same,inhibition,Homo sapiens,0%
same,inhibition,[40],-9%
same,inhibition,[41],-1%
same,inhibition,[42],3%
N[C@H]1CC[C@H](Nc2cc(Nc3ccc(F)c(Cl)c3)n3nccc3n2)CC1,solubility,[4],75 µg/mL
same,IC50,[43],25 µM
same,IC50,[44],3 µM
same,IC50,[45],11 µM
same,microsomal CLint,[12],< 10 µL/min/mg
same,Papp A→B,[17],7.1 ×10⁻⁶ cm/s
same,IC50,[46],1.3 µM
same,IC50,[47],23 µM
same,IC50,[48],14 µM
same,IC50,[49],300 µM
same,IC50,[50],0.055 µM
same,IC50,[51],> 100 µM
same,microsomal CLint,[32],59 µL/min/mg
same,Ki,[52],6 µM
